Reference: US9393316B2, “Cancer targeting peptides for enhancing anti-cancer drug delivery and therapeutic efficiencies” (priority 2014, dated 2016)

Experiments:
COLO205 = experiment: Flow cytometry surface binding of phage clones; design: species or system human
Procedure: (§1) Cells were grown to 70-80% confluence and were harvested with 10 mM EDTA in PBS. Peripheral blood mononuclear cells were prepared by using Ficoll-Paque Plus density gradient separation. After washing and suspending the cells with FACS buffer (PBS containing 1% fetal bovine serum), the cells were incubated for 1 hr at 4° C. with 5×10^9, 1×10^9 cfu individual phage clones or control phage, respectively. After washing twice with FACS buffer, cells were incubated with mouse anti-M13 monoclonal antibody (GE Healthcare) at 1:2000 dilution for 1 hr followed by 30 min with phycoerythrin (PE)-conjugated goat anti-mouse secondary antibody (Jackson ImmunoResearch) at 1:250 dilution at 4° C. The emission fluorescence signals were measured using FACSCantoll (Becton Dickinson) and were analyzed by FlowJo software.

HCT116 cells = experiment: Flow cytometry surface binding of phage clones; design: species or system human
Procedure: as §1

HT29 = experiment: Flow cytometry surface binding of phage clones; design: species or system human
Procedure: as §1

LS174T = experiment: Flow cytometry surface binding of phage clones; design: species or system human
Procedure: as §1

SW620 = experiment: Flow cytometry surface binding of phage clones; design: species or system human
Procedure: as §1

1112SK = experiment: Cellular ELISA of phage clones; assay type: binding, human
Procedure: (§2) The selected phages were further identified by ELISA screening. 1×10^4 cells were seeded into each well of 96-well ELISA plates (Falcon, Calif., USA) overnight and were fixed with 2% paraformaldehyde or methanol/acetone (1:1) for 10 min at RT. The plates were washed twice with PBS and were blocked with 1% BSA in PBS (w/v) for 30 min at RT. Then individual phage clones were added and incubated for 1 hr at RT. Following washing three times with PBS, the plates were incubated with horseradish peroxidase (HRP)-conjugated mouse anti-M13 phage antibody (GE Healthcare) at 1:2000 dilution for 1 hr at RT. The plates were washed three times with PBS again, and were subsequently incubated with the peroxidase substrate o-phenylenediamine dihydrochloride (OPD; Sigma) plus H2O2. The reaction was terminated by 3 N HCl, and the absorbance was measured using microplate reader (Model 680, BioRad) at 490 nm. To evaluate the binding activities of the three selected phage clones to various human cancer cell lines, cellular ELISA was performed to detect sixteen types of human cancer cell lines, including A498, HTB-10, B16-F10, SKOV3, PC-3, U2OS, 1112SK, […], SAS, H460, MIA Paca-2, HCT116, HUVAC, CL1-5, Mahlavu, and MDA-MB-231.

A498 = experiment: Cellular ELISA of phage clones; assay type: binding, human
Procedure: as §2

CL1-5 = experiment: Cellular ELISA of phage clones; assay type: binding, human
Procedure: as §2

H184 = experiment: Cellular ELISA of phage clones; assay type: binding, human
Procedure: as §2

H460 = experiment: Cellular ELISA of phage clones; assay type: binding, human
Procedure: as §2

HTB-10 = experiment: Cellular ELISA of phage clones; assay type: binding, human
Procedure: as §2

HUVAC = experiment: Cellular ELISA of phage clones; assay type: binding, human
Procedure: as §2

MDA-MB-231 = experiment: Cellular ELISA of phage clones; assay type: binding, human
Procedure: as §2

MIA Paca-2 = experiment: Cellular ELISA of phage clones; assay type: binding, human
Procedure: as §2

Mahlavu = experiment: Cellular ELISA of phage clones; assay type: binding, human
Procedure: as §2

PC-3 = experiment: Cellular ELISA of phage clones; assay type: binding, human
Procedure: as §2

SAS = experiment: Cellular ELISA of phage clones; assay type: binding, human
Procedure: as §2

SKOV3 = experiment: Cellular ELISA of phage clones; assay type: binding, human
Procedure: as §2

U2OS = experiment: Cellular ELISA of phage clones; assay type: binding, human
Procedure: as §2

B16-F10 = experiment: Cellular ELISA of phage clones; assay type: binding, mouse
Procedure: as §2

[1] = molecular target: recombinant α-enolase protein (Homo sapiens, UniProt P06733); experiment: Direct ELISA of HCT74 phage on recombinant α-enolase protein; assay type: binding; details: plate coated with 2 ug/mL α-enolase
recombinant α-enolase protein, sequence (P06733 whole entry): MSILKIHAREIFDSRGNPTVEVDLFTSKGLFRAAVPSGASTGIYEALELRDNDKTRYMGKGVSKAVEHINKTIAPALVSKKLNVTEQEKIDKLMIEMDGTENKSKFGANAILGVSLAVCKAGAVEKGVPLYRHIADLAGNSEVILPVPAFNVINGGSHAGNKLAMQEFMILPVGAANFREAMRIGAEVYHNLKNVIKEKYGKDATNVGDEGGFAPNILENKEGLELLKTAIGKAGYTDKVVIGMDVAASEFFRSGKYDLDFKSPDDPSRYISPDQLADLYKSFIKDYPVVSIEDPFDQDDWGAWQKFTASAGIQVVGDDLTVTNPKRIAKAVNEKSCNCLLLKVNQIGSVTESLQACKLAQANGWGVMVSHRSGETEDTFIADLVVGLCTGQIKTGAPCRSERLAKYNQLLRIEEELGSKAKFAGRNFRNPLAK
Procedure: (A) Schematic diagram of the experimental design. (B) The binding characteristics of biotinylated pHCT74 peptide to HCT116 cells were evaluated by flow cytometry. (C) Affinity cross-linking of biotinylated pHCT74 peptide to the surface proteins of HCT116 cells, cross-linked proteins were cleaved from streptavidin dynabeads using 2-mercaptoethanol. […] (D) The peptide sequence (SEQ ID NO: 22) of target bands were deduced by tandem mass spectrometry. (E) Stable knockdown of ENO1 gene by introducing specific shRNA (ENO1-A, B, C and D shRNA) into HCT116 cells through infection with viral vectors. (F) The binding activity of HCT74 phage was reduced after α-enolase gene knockdown (G) The binding activity of HCT74 phage was enhanced when α-enolase was overexpressed. (H) Binding affinity of the HCT74 phage to recombinant α-enolase protein. The 96-well plate was pre-coated with 2 ug/mL α-enolase protein and incubated with increasing concentrations of HCT74 phage and then with HRP conjugated anti-M13 antibody. Data are presented as mean±standard deviation.
To further confirm alpha-enolase was the target proteins of the pHCT74 peptide, correlation between the binding activity of HCT74 phage and ENO1 expression was examined. We established stable cell lines expressing shRNAs targeting ENO1 gene (FIG. 4E) and tested the binding activity of HCT74 phage by flow cytometry. […]

binding activity by FACS (COLO205): weak affinity
binding activity by FACS (HT29): high binding affinity
binding activity by FACS (LS174T): moderate affinity
binding activity by FACS (SW620): high binding affinity
binding by cellular ELISA (1112SK): highly specific binding
binding by cellular ELISA (A498): highly specific binding
binding by cellular ELISA (CL1-5): moderate binding
binding by cellular ELISA (H184): highly specific binding
binding by cellular ELISA (H460): highly specific binding
binding by cellular ELISA (HTB-10): moderate binding
binding by cellular ELISA (HUVAC): highly specific binding
binding by cellular ELISA (MDA-MB-231): highly specific binding
binding by cellular ELISA (MIA Paca-2): highly specific binding
binding by cellular ELISA (Mahlavu): highly specific binding
binding by cellular ELISA (PC-3): highly specific binding
binding by cellular ELISA (SAS): highly specific binding
binding by cellular ELISA (SKOV3): highly specific binding
binding by cellular ELISA (U2OS): highly specific binding
binding by cellular ELISA (B16-F10): highly specific binding
specific binding to alpha enolase protein [1]: confirmed
Sequence: SSMDIVLRAPLM [HCT74]
cell surface-binding activity by flow cytometry (HCT116 cells): high binding affinity
